Source: the supplement of paper PMC11061612

Tests used:
Experiment in all cases: combination Emax (second highest fraction inhibited in the dose matrix, 72 h); higher = more inhibition; extreme values may be limits of the assay
[1] = test system: SU-DHL-6 (B-Cell Non-Hodgkin's Lymphoma)
Summary of the method: (§1)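 Bliss excess equals the observed combination effect minus the expected value EA + EB − EA·EB, where EA and EB are the effects of each agent alone. Combination Emax is the second-highest inhibition within the matrix. Inhibition was scaled from CellTiter-Glo 2.0 luminescence, with 0 set by vehicle wells and 1 by blank wells, after 72 hours of two-drug dosing of cells plated in 1536-well plates.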

[2] = test system: 8305C (Thyroid Gland Carcinoma)
Summary of the method: as §1

[3] = test system: SK-OV-3 (Ovarian Carcinoma)
Summary of the method: as §1

Mewo (Melanoma) = test system: Mewo (Melanoma)
Summary of the method: as §1

[4] = test system: CAPAN-1 (Pancreatic Carcinoma)
Summary of the method: as §1

[5] = test system: LU-139 (Small Cell Lung Carcinoma)
Summary of the method: as §1

NCI-H2461 (Mesothelioma) = test system: NCI-H2461 (Mesothelioma)
Summary of the method: as §1

[6] = test system: RKO (Colorectal Carcinoma)
Summary of the method: as §1

SH-4 (Melanoma) = test system: SH-4 (Melanoma)
Summary of the method: as §1

[7] = test system: Hs-633T (Other Solid Carcinomas)
Summary of the method: as §1

[8] = test system: PCI-30 (Head and Neck Carcinoma)
Summary of the method: as §1

[9] = test system: SUP-T1 (T-Lymphoblastic Leukemia)
Summary of the method: as §1

[10] = test system: NCI-H747 (Colorectal Carcinoma)
Summary of the method: as §1

COLO-829 (Melanoma) = test system: COLO-829 (Melanoma)
Summary of the method: as §1

[11] = test system: TE-4 (Esophageal Squamous Cell Carcinoma)
Summary of the method: as §1

[12] = test system: MHH-PREB-1 (B-Cell Non-Hodgkin's Lymphoma)
Summary of the method: as §1

[13] = test system: KARPAS-231 (B-Cell Non-Hodgkin's Lymphoma)
Summary of the method: as §1

[14] = test system: SW626 (Colorectal Carcinoma)
Summary of the method: as §1

[15] = test system: 639-V (Bladder Carcinoma)
Summary of the method: as §1

C=CCn1c(=O)c2cnc(Nc3ccc(N4CCN(C)CC4)cc3)nc2n1-c1cccc(C(C)(C)O)n1 [AZD1775] + CCc1c2c(nc3ccc(O)cc13)-c1cc3c(c(=O)n1C2)COC(=O)[C@]3(O)CC [SN-38] (first compound max 1 µM, partner max 0.3 µM)
combination Emax [1]: 1 | combination Emax [2]: 0.589 | combination Emax [3]: 0.525 | combination Emax (Mewo (Melanoma)): 0.676 | combination Emax [4]: 0.799 | combination Emax [5]: 0.849 | combination Emax (NCI-H2461 (Mesothelioma)): 0.702 | combination Emax [6]: 0.966 | combination Emax (SH-4 (Melanoma)): 0.607 | combination Emax [7]: 0.868 | combination Emax [8]: 0.836 | combination Emax [9]: 0.84

NC1(C(=O)N[C@@H](CCO)c2ccc(Cl)cc2)CCN(c2ncnc3[nH]ccc23)CC1 [Capivasertib] + CC(=O)c1c(C)c2cnc(Nc3ccc(N4CCNCC4)cn3)nc2n(C2CCCC2)c1=O [Palbociclib] (first compound max 10 µM, 7x7, partner max 10 µM)
combination Emax [1]: 1 | combination Emax [2]: 0.469 | combination Emax [10]: 0.795 | combination Emax (COLO-829 (Melanoma)): 0.356 | combination Emax [3]: 0.417 | combination Emax (Mewo (Melanoma)): 0.493 | combination Emax [4]: 0.277 | combination Emax [11]: 0.826 | combination Emax [12]: 0.502 | combination Emax [13]: 0.129 | combination Emax [5]: 0.0872 | combination Emax (NCI-H2461 (Mesothelioma)): 0.467 | combination Emax [6]: 0.601 | combination Emax [14]: 0.348 | combination Emax (SH-4 (Melanoma)): 0.427 | combination Emax [7]: 0.707 | combination Emax [15]: 0.299 | combination Emax [8]: 0.291 | combination Emax [9]: 0.677

COc1nnc2ccc(N3CCC(c4ccc(OCCN5CCN(C)C(=O)[C@H]5C)cc4)CC3)nn12 [AZD5153] + Cc1c2c(nn1C)CSCc1cc(n(C)n1)CSc1cc(c3ccccc3c1)OCCCc1c(C(=O)O)n(C)c3c-2c(Cl)ccc13 [AZD5991] (first compound max 1 µM, 7x7, partner max 1 µM)
combination Emax [1]: 1 | combination Emax [2]: 0.545 | combination Emax [10]: 0.734 | combination Emax (COLO-829 (Melanoma)): 0.514 | combination Emax [3]: 0.413 | combination Emax (Mewo (Melanoma)): 0.719 | combination Emax [4]: 0.417 | combination Emax [11]: 0.847 | combination Emax [12]: 0.461 | combination Emax [13]: 0.941 | combination Emax [5]: 0.91 | combination Emax (NCI-H2461 (Mesothelioma)): 0.498 | combination Emax [6]: 0.78 | combination Emax [14]: 0.704 | combination Emax (SH-4 (Melanoma)): 0.89 | combination Emax [7]: 0.631 | combination Emax [15]: 0.653 | combination Emax [8]: 0.344 | combination Emax [9]: 0.726

C=CCn1c(=O)c2cnc(Nc3ccc(N4CCN(C)CC4)cc3)nc2n1-c1cccc(C(C)(C)O)n1 [AZD1775] + C1CN(CCC1(C(=O)N[C@@H](CCO)C2=CC=C(C=C2)Cl)N)C3=NC=NC4=C3C=CN4 [Capivasertib] (first compound max 3 µM, partner max 3 µM)
combination Emax [1]: 0.994 | combination Emax [2]: 0.681 | combination Emax [10]: 0.623 | combination Emax (COLO-829 (Melanoma)): 0.322 | combination Emax [3]: 0.581 | combination Emax (Mewo (Melanoma)): 0.589 | combination Emax [4]: 0.674 | combination Emax [11]: 0.88 | combination Emax [12]: 0.812 | combination Emax [13]: 1 | combination Emax [5]: 0.733 | combination Emax (NCI-H2461 (Mesothelioma)): 0.67 | combination Emax [6]: 0.886 | combination Emax [14]: 0.583 | combination Emax (SH-4 (Melanoma)): 0.715 | combination Emax [7]: 0.897 | combination Emax [15]: 0.642 | combination Emax [8]: 0.477 | combination Emax [9]: 0.916

COc1nnc2ccc(N3CCC(c4ccc(OCCN5CCN(C)C(=O)[C@H]5C)cc4)CC3)nn12 [AZD5153] + Cn1cnc2c(F)c(Nc3ccc(Br)cc3Cl)c(C(=O)NOCCO)cc21 [Selumetinib] (first compound max 1 µM, 7x7, partner max 10 µM)
combination Emax [1]: 0.913 | combination Emax [2]: 0.576 | combination Emax [10]: 0.937 | combination Emax (COLO-829 (Melanoma)): 0.663 | combination Emax [3]: 0.404 | combination Emax (Mewo (Melanoma)): 0.663 | combination Emax [4]: 0.664 | combination Emax [11]: 0.871 | combination Emax [12]: 0.459 | combination Emax [13]: 0 | combination Emax [5]: 0.912 | combination Emax (NCI-H2461 (Mesothelioma)): 0.501 | combination Emax [6]: 0.88 | combination Emax [14]: 0.881 | combination Emax (SH-4 (Melanoma)): 0.953 | combination Emax [7]: 0.748 | combination Emax [15]: 0.676 | combination Emax [8]: 0.368 | combination Emax [9]: 0.718

NC1(C(=O)N[C@@H](CCO)c2ccc(Cl)cc2)CCN(c2ncnc3[nH]ccc23)CC1 [Capivasertib] + COc1nnc2ccc(N3CCC(c4ccc(OCCN5CCN(C)C(=O)[C@H]5C)cc4)CC3)nn12 [AZD5153] (first compound max 10 µM, 7x7, partner max 1 µM)
combination Emax [1]: 1 | combination Emax [2]: 0.495 | combination Emax [10]: 0.855 | combination Emax (COLO-829 (Melanoma)): 0.272 | combination Emax [3]: 0.535 | combination Emax (Mewo (Melanoma)): 0.433 | combination Emax [4]: 0.358 | combination Emax [11]: 0.851 | combination Emax [12]: 0.384 | combination Emax [13]: 0.229 | combination Emax [5]: 0.864 | combination Emax (NCI-H2461 (Mesothelioma)): 0.526 | combination Emax [6]: 0.842 | combination Emax [14]: 0.642 | combination Emax (SH-4 (Melanoma)): 0.775 | combination Emax [7]: 0.519 | combination Emax [15]: 0.622 | combination Emax [8]: 0.366 | combination Emax [9]: 0.789

CC(=O)c1c(C)c2cnc(Nc3ccc(N4CCNCC4)cn3)nc2n(C2CCCC2)c1=O [Palbociclib] + Cn1cnc2c(F)c(Nc3ccc(Br)cc3Cl)c(C(=O)NOCCO)cc21 [Selumetinib] (first compound max 10 µM, 7x7, partner max 10 µM)
combination Emax [1]: 0.806 | combination Emax [2]: 0.469 | combination Emax [10]: 0.811 | combination Emax (COLO-829 (Melanoma)): 0.614 | combination Emax [3]: 0.237 | combination Emax (Mewo (Melanoma)): 0.485 | combination Emax [4]: 0.382 | combination Emax [11]: 0.403 | combination Emax [12]: 0.445 | combination Emax [13]: 0.264 | combination Emax [5]: 0.282 | combination Emax (NCI-H2461 (Mesothelioma)): 0.395 | combination Emax [6]: 0.715 | combination Emax [14]: 0.531 | combination Emax (SH-4 (Melanoma)): 0.886 | combination Emax [7]: 0.599 | combination Emax [15]: 0.259 | combination Emax [8]: 0.223 | combination Emax [9]: 0.599
